According to patent US20230364118A1, “RIBITOL TREATMENT” (priority 2020, published 2023):
Read-outs that look alike come from different tables or passages of the source.

Key:
[1] = 28-day repeat-dose oral toxicokinetics; format: in vivo, CD-1 mouse; conditions: for Tmax / Cmax / AUC(0-t): CD-1, mouse, plasma; for AUC(0-t): read-out: AUC0-24
Experimental: Toxicokinetics of ribitol was evaluated as part of the 28-day toxicology study in male and female CD-1 mice. […] Toxicokinetic animals were 12/sex in the control group and 48/sex/group in the treated groups. Blood samples were collected on Day 1 and Day 28 at pre-first dose, 0.5, 2, 4, 8 (prior to second dose), 8.5, 10, and 24 h.

matriglycan expression = test: Matriglycan expression in wild type mice; format: in vivo, mouse; conditions: one month, 5% ribitol in drinking water; vs vehicle
Experimental: Wild type mice were dosed with ribitol to assess matriglycan expression in normal mice. The mice were treated for one month with 5% ribitol in drinking water ad libitum. Muscle samples were evaluated for matriglycan expression at the end of dosing via Western Blot analysis (FIG. 9).

[2] = Metabolic stability in liver microsomes, cytosol, hepatocytes; format: in vitro ADME
Experimental: Metabolic stability of ribitol was conducted in liver microsomes, cytosol, and primary hepatocytes, from CD-1 mouse, Sprague-Dawley rat, Gottingen minipig, and human at a concentration of ribitol of 10 μM.

[3] = both sexes, po, 0.5 g/kg, 0.5 g/kg/dose BID, Day 1, Mean of sexes
[4] = both sexes, po, 0.5 g/kg, 0.5 g/kg/dose BID, Day 28, Mean of sexes
[5] = both sexes, po, 1 g/kg, 1.0 g/kg/dose BID, Day 1, Mean of sexes
[6] = both sexes, po, 1 g/kg, 1.0 g/kg/dose BID, Day 28, Mean of sexes
[7] = both sexes, po, 1.5 g/kg, 1.5 g/kg/dose BID, Day 1, Mean of sexes
[8] = both sexes, po, 1.5 g/kg, 1.5 g/kg/dose BID, Day 28, Mean of sexes
[9] = female, po, 0.5 g/kg, 0.5 g/kg/dose BID, Day 1, Female
[10] = female, po, 0.5 g/kg, 0.5 g/kg/dose BID, Day 28, Female
[11] = female, po, 1 g/kg, 1.0 g/kg/dose BID, Day 1, Female
[12] = female, po, 1 g/kg, 1.0 g/kg/dose BID, Day 28, Female
[13] = female, po, 1.5 g/kg, 1.5 g/kg/dose BID (3.0 g/kg/day, NOAEL), Day 28, Female
[14] = female, po, 1.5 g/kg, 1.5 g/kg/dose BID, Day 1, Female
[15] = male, po, 0.5 g/kg, 0.5 g/kg/dose BID, Day 1, Male
[16] = male, po, 0.5 g/kg, 0.5 g/kg/dose BID, Day 28, Male
[17] = male, po, 1 g/kg, 1.0 g/kg/dose BID, Day 1, Male
[18] = male, po, 1 g/kg, 1.0 g/kg/dose BID, Day 28, Male
[19] = male, po, 1.5 g/kg, 1.5 g/kg/dose BID (3.0 g/kg/day, NOAEL), Day 28, Male
[20] = male, po, 1.5 g/kg, 1.5 g/kg/dose BID, Day 1, Male
[21] = CD-1, mouse, liver cytosol, Cytosol
[22] = CD-1, mouse, liver microsomes, Microsomes
[23] = CD-1, mouse, primary hepatocytes, Hepatocytes
[24] = Gottingen, minipig, liver cytosol, Cytosol
[25] = Gottingen, minipig, liver microsomes, Microsomes

With OC[C@@H](O)[C@@H](O)[C@@H](O)CO [ribitol, (2R,3s,4S)-Pentane-1,2,3,4,5-pentol] the drug accumulation ([1]; after 28 days repeated oral administration, any dose level) was “no apparent ribitol drug accumulation”, the Tmax ([1]; both sexes, oral, post first dose and post second dose, Day 1 or Day 28) was 0.5 h and the Cmax [1, 3] was 141 µg/mL. For the same compound, the AUC(0-t) [1, 3] was 337 µg·h/mL, the Cmax [1, 4] was 140 µg/mL and the AUC(0-t) [1, 4] was 422 µg·h/mL. For the same compound, the Cmax [1, 5] was 257 µg/mL, the AUC(0-t) [1, 5] was 540 µg·h/mL and the Cmax [1, 6] was 245 µg/mL. For the same compound, the AUC(0-t) [1, 6] was 806 µg·h/mL, the Cmax [1, 7] was 384 µg/mL and the AUC(0-t) [1, 7] was 1020 µg·h/mL. For the same compound, the Cmax [1, 8] was 336 µg/mL, the AUC(0-t) [1, 8] was 1090 µg·h/mL and the Cmax [1, 9] was 157 µg/mL. For the same compound, the Tmax [1, 9] was 8.5 h, the AUC(0-t) [1, 9] was 322 µg·h/mL and the Cmax [1, 10] was 141 µg/mL. The Tmax [1, 10] was 8.5 h, the AUC(0-t) [1, 10] was 393 µg·h/mL and the Cmax [1, 11] was 227 µg/mL. For the same compound, the Tmax [1, 11] was 8.5 h, the AUC(0-t) [1, 11] was 520 µg·h/mL and the Cmax [1, 12] was 252 µg/mL. For the same compound, the Tmax [1, 12] was 0.5 h, the AUC(0-t) [1, 12] was 794 µg·h/mL and the Cmax [1, 13] was 294 µg/mL. It also gave an AUC(0-t) [1, 13] of 839 µg·h/mL, a Cmax [1, 14] of 334 µg/mL and a Tmax [1, 14] of 8.5 h. For the same compound, the AUC(0-t) [1, 14] was 1070 µg·h/mL, the Tmax ([1]; female, po, 1.5 g/kg, 1.5 g/kg/dose BID, Day 28, Female) was 8.5 h and the Cmax [1, 15] was 124 µg/mL. For the same compound, the Tmax [1, 15] was 0.5 h, the AUC(0-t) [1, 15] was 351 µg·h/mL and the Cmax [1, 16] was 138 µg/mL. It also gave a Tmax [1, 16] of 0.5 h, an AUC(0-t) [1, 16] of 450 µg·h/mL and a Cmax [1, 17] of 286 µg/mL. The Tmax [1, 17] was 8.5 h, the AUC(0-t) [1, 17] was 559 µg·h/mL and the Cmax [1, 18] was 238 µg/mL. For the same compound, the Tmax [1, 18] was 8.5 h, the AUC(0-t) [1, 18] was 818 µg·h/mL and the Cmax [1, 19] was 377 µg/mL. For the same compound, the AUC(0-t) [1, 19] was 1340 µg·h/mL, the Cmax [1, 20] was 433 µg/mL and the Tmax [1, 20] was 8.5 h. For the same compound, the AUC(0-t) [1, 20] was 972 µg·h/mL, the Tmax ([1]; male, po, 1.5 g/kg, 1.5 g/kg/dose BID, Day 28, Male) was 8.5 h and the “matriglycan expression (Western Blot)” value (matriglycan expression) was “No increase in matriglycan expression”. The CLint scaled at 10 μM [2, 21] was 4.75 mL/min/kg, the half-life at 10 μM [2, 21] was 9.63 h and the CLint scaled at 10 μM [2, 22] was < 29.3 mL/min/kg. The half-life at 10 μM [2, 22] was > 3.12 h, the CLint scaled at 10 μM [2, 23] was < 22.6 mL/min/kg and the half-life at 10 μM [2, 23] was > 6.07 h. For the same compound, the CLint scaled at 10 μM [2, 24] was 2.71 mL/min/kg, the half-life at 10 μM [2, 24] was 3.27 h and the CLint scaled at 10 μM [2, 25] was < 5.56 mL/min/kg. The half-life at 10 μM [2, 25] was > 3.12 h and the CLint scaled at 10 μM ([2]; Gottingen, minipig, primary hepatocytes, Hepatocytes) was < 9.16 mL/min/kg.
